Results on one compound are retold here after article PMC3532304, “Piperidinols That Show Anti-Tubercular Activity as Inhibitors of Arylamine N-Acetyltransferase: An Essential Enzyme for Mycobacterial Survival Inside Macrophages” (PLoS ONE, 2012).

Values after ≈ are worked out from the molar mass of the structure shown. Values joined by “and” are separate entries in the source; they are usually repeats but may differ in a detail not shown here. Equal entries are not always repeated. Where two headings read alike, the source gives them in different places.

Assay [1] concerns M. tuberculosis H37Rv. The assay can be described thus: Mycobacterial growth inhibition in vitro (spot culture on solid medium). Format: cell-based. To be noted: Mycobacterium tuberculosis, H37RV, 336 h, read-out: MIC M. tuberculosis.
Assay [2] concerns the target T1, hamster NAT2 (shNAT2) (Mesocricetus auratus, UniProt P50293).
T1 construct: made in house
T1 sequence (P50293 1-290): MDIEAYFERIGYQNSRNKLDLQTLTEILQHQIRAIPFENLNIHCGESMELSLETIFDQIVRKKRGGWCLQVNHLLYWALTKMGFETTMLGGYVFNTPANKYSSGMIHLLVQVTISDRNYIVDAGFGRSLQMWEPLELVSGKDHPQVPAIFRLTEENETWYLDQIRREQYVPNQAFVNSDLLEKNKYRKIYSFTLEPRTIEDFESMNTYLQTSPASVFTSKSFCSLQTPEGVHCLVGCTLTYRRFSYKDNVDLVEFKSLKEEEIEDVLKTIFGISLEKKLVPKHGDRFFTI
The assay can be described thus: Specificity panel of recombinant NAT enzymes (Ac-CoA hydrolysis with 5ASA). Format: biochemical. The conditions noted are these: 30 µM. Here is the method: (§1) Figure 2 Specificity of compound 1 for prokaryotic NAT enzymes. Compound 1 was tested at 30 µM against pure recombinant NAT enzymes from M. smegmatis (MSNAT), P. aeruginosa (PANAT), S. typhimurium (STNAT), MMNAT and TBNAT, and also against two eukaryotic enzymes, hamster NAT2 (shNAT2) and human NAT1. The results are shown as the mean ± S.D. of triplicate determinations of the percentage inhibition of hydrolysis of Ac-CoA in the presence of 5-aminosalicylic acid (5ASA) and against TBNAT using hydralazine as a substrate. The inhibition is represented as a percentage compared to an uninhibited control from triplicate measurements. The structure of compound 1 is shown and the piperidinol nucleus is highlighted by the shaded area.

Assay [3] addresses T2, human NAT1 (Homo sapiens, UniProt P18440).
T2 construct: made in house
T2 sequence (P18440 1-290): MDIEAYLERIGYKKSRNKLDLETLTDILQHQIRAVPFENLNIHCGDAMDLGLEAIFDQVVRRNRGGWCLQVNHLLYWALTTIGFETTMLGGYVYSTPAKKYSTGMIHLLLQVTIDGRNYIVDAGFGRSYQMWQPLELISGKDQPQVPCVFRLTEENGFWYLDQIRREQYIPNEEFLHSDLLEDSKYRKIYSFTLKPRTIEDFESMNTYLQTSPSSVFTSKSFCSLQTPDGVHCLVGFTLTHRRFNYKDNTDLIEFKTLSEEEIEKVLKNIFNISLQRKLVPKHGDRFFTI
The description is as above. Format: biochemical. The conditions noted are these: 30 µM. Here is the method: as §1

In assay [4] the target is T3, TBNAT (Mycobacterium tuberculosis, UniProt P9WJI5).
T3 construct: made in house
The assay can be described thus: NAT-inhibition assay (Ac-CoA hydrolysis with hydralazine, Ellman's reagent). Format: biochemical, M. tuberculosis. The conditions noted are these: 150 µM HLZ, 120 µM Ac-CoA, 24°C. On the procedure:
An assay for measuring the formation of CoA was used to determine the activity of the enzyme in the presence of potential inhibitors. All the tested compounds were dissolved in dimethylsulphoxide (DMSO) and all reactions were carried out in the presence of 5% (v/v) DMSO. The enzyme (100–150 ng) was mixed with the inhibitors 1–5 (5 µL at a final concentration of 0–250 µM) and incubated for 15 min at 24°C prior to starting the reaction by adding 15 µL hydralazine and 12 µL Ac-CoA at final concentrations of 150 µM and 120 µM respectively, in a final total volume of 100 µL of 20 mM Tris-HCl pH 8. The assay was performed as an end-point read out measurement by stopping the reaction after 10 min at 24°C using 25 µL Ellman's reagent (5 mM 5,5′-dithiobis-(2-nitrobenzoate) solution in 6.4 M guanidine-HCl and 100 mM Tris-HCl, pH 7.3). The absorbance was measured at a wavelength of 405 nm within 2 min (Tecan Sunrise Plate Reader). The assays were repeated using a 10-fold enzyme concentration to exclude promiscuous non-specific inhibitors. The activity of the enzyme in the presence of 5% (v/v) DMSO was measured as a control. Inhibition values were determined as the ratio of the enzyme activity (expressed as the rate of CoA formation per microgram protein (µM/min.µg)) with the requisite compound, to the activity of the control without inhibitor. IC50 values were determined from the inhibition curves which were obtained by non-linear fitting of the % inhibition and the inhibitor concentration (µM) using the Log(inhibitor) vs. response module of GraphPad Prism 5.0.

Assay [5] deals with MMNAT (Mycobacterium marinum, UniProt B2HIZ6). The assay can be described thus: Time-dependent inhibition assay (Kitz and Wilson model). Format: biochemical, M. marinum. The conditions noted are these: inhibitor at 11.9 µM; 24°C. On the procedure: The time course of the inhibition of NAT by the piperidinols was evaluated according to the Kitz and Wilson model. Irreversible inhibition, progressive with time, was measured for the piperidinol inhibitors (1–5) by the protocol described in Figure S2, and the values of the apparent first order constant (kobs) were determined (Table 1). Dilution rather than dialysis was used in this protocol due to the likely loss of activity upon dialysis (Figure 3). […] Examples of the curves obtained for enzyme activity against incubation time upon inhibition of MMNAT and TBNAT by the piperidinols are shown in Figure 4.
For the determination of the time dependence of interaction between enzymes and inhibitors, the inhibitor was diluted to less than 1% concentration. Incubation mixtures (20 µL) contained 0.06 mM MMNAT or TBNAT in 20 mM Tris-HCl, pH 8 and 5% (v/v) DMSO and variable concentrations of the inhibitors (0–50 µM) were prepared using the protocol described in Figure S1. Aliquots of 1 µL were removed from the reaction mixture at different time points (incubation-time) and diluted to 100 µL using the assay buffer containing HLZ and Ac-CoA to the final concentrations of 150 µM and 120 µM, respectively. The rate of Ac-CoA hydrolysis was measured over a three-minute time period. The reaction was stopped with 25 µL Ellman's reagent in 6.4 M guanidine and the absorbance was measured at a wavelength of 405 nm. The residual activity was measured as a percentage of a control prepared as described in Figure S1 and plotted against the incubation-time. The data were fitted using the Semilog line (X is linear, Y is Log) module of GraphPad Prism 5.0. The slope of each line is equivalent to (−kobs/2.303) at each inhibitor concentration.The controls in which no enzyme was present using CoA and Ellman's reagent gave the same results whether compound 1 was present or not.

Assay [6] has as its system M. tuberculosis. More on the design: method as in PMID 13402115. To be noted: cited from earlier work.
Assay [7] has as its target T3, TBNAT. Nature of the assay: ESI-MS analysis of covalent enzyme-inhibitor adducts. Format: binding, M. tuberculosis. To be noted: enzyme-to-inhibitor ratio 1∶15; proposed number of inhibition species bound per protein molecule.
The subject of assay [8] is M. bovis BCG. The assay can be described thus: microbe, parasite or virus in culture. Format: cell-based. The conditions noted are these: Mycobacterium tuberculosis variant bovis BCG, BCG, 336 h, read-out: MIC M. bovis BCG.

T3 sequence (P9WJI5 whole entry): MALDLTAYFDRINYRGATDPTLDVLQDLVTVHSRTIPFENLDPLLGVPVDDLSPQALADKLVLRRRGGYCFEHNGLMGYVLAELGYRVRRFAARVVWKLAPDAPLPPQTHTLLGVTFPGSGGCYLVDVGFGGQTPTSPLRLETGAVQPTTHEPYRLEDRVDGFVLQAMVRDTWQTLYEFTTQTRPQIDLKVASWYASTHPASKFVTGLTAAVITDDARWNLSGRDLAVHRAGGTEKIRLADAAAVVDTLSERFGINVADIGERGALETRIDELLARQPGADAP
Chain of MMNAT (B2HIZ6 entry or part of it): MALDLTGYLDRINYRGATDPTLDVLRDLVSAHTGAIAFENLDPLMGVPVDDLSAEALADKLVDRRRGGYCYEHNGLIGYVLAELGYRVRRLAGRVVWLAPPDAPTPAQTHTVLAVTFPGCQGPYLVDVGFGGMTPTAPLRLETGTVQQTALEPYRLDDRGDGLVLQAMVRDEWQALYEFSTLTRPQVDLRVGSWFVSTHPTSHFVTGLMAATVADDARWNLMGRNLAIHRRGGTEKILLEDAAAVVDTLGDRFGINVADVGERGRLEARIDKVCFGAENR

For the compound `CN1CCC(O)(c2ccccc2)C(C(=O)c2ccccc2)C1` (stereo not shown) [compound 1, (4-hydroxy-1-methyl-4-phenylpiperidin-3-yl)(phenyl)methanone], the MIC was in the range of 3.4 to 16.9 µM (≈ 1 to 4.99 µg/mL) in assay [1] and 21.3 to 42.3 µM (≈ 6.29 to 12.5 µg/mL) in assay [8]. In assay [2], the “inhibition of eukaryotic NAT (hamster NAT2)” value was “did not show significant inhibition”. Moreover, the “inhibition of eukaryotic NAT (human NAT1)” value in assay [3] is “did not show significant inhibition”. Also, in assay [4] (50 µM inhibitor, mean ± S.D. of triplicate, read-out: TBNAT % Inhibition), the inhibition at 50 µM is 101 ± 1%. The same compound had an IC50 in assay [4] (mean ± S.D.) of 7.7 ± 0.9 µM. The MMNAT kobs in assay [5] is 9±2 10^−3 min^−1. Further, the results for the “minimum inhibitory concentration (MIC) against M. tuberculosis” value in assay [6] (conversion of the µg/mL value) and in assay [6] (reported over 50 years ago) were roughly 17 µM (≈ 5.02 µg/mL) and “less than 5 µg/mL”, respectively. Also, in assay [7], the “Molar ratio (inhibitor/protein) (TBNAT)” value is 1 and 2.
